The structures appear in SMILES notation. “And” between values parts separate entries of the source, which are not always exact repeats. Equal entries are not always repeated. Some results are limits rather than exact numbers.

The text below walks through data of patent US20250084039A1, “4-SUBSTITUTED AMINOISOQUINOLINE DERIVATIVES” (Purdue Research Foundation, priority 2016, published 2025).

The target of one assay is AURKA (Homo sapiens (Human), UniProt O14965). As to the kind of experiment: DiscoverX Kd Elect binding. Here is the method: (§1) HCK is expressed more in human primary leukemic stem cells than in human normal hematopoietic stem cells. […] Other protein kinases such as SYK, BRAF, p38 (p38MAPK), PDGFRα/β, FGFR1, RET, FLT4, Tie2 have also been linked to leukemia. […] Thus, it was tested if HSN286 and analogs were also targeting kinases that play critical roles in AML. […] (Table 9). The inhibition of the Src-kinase family could be important clinically because these kinases are downstream of FLT3. In the event of FLT3 mutation, the inhibition of the Src-family kinases could still lead to proliferation inhibition.

The target in the next assay is KIT (Homo sapiens (Human), UniProt P10721). Nature of the assay: DiscoverX Kd Elect binding. Here is the method:
as §1

The next assay deals with TRKC (Homo sapiens (Human), UniProt Q16288). Nature of the assay: Reaction Biology HotSpot kinase assay. In kind it is biochemical. The note with it: 500 nM compound, 100 μM radiolabeled ATP. The essentials: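 Phosphotransfer from [γ-33P]ATP was quantified after filter binding on P81 paper. Conditions: 20 mM HEPES pH 7.5, 10 mM MgCl2, 0.1 mM Na3VO4, 2 mM DTT, 0.02 mg/mL BSA; ATP 100 μM final; 2 h at room temperature. Compound was dosed at 500 nM.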

For assay [1], the target named is ABL1 (T315I) non-phosphorylated (Homo sapiens (Human), UniProt P00519, T315I). Nature of the assay: DiscoverX Kd Elect binding.
A further assay deals with FLT3 (Homo sapiens (Human), UniProt P36888). As to the kind of experiment: DiscoverX Kd Elect binding. From the text: Although the current drugs on the market or in clinical trials are relatively successful in killing the AML leukemia cells, they currently are unable to deal with secondary mutations that occur after TKI treatment, such as FLT3 ([…]).
HCK is expressed more in human primary leukemic stem cells than in human normal hematopoietic stem cells. […] Other protein kinases such as SYK, BRAF, p38 (p38MAPK), PDGFRα/β, FGFR1, RET, FLT4, Tie2 have also been linked to leukemia. […] (Table 9). The inhibition of the Src-kinase family could be important clinically because these kinases are downstream of FLT3. In the event of FLT3 mutation, the inhibition of the Src-family kinases could still lead to proliferation inhibition.

The target of a further assay is ABL1 non-phosphorylated (Homo sapiens (Human), UniProt P00519). As to the kind of experiment: DiscoverX Kd Elect binding.
The next assay concerns the target JAK2 (Homo sapiens (Human), UniProt O60674). As to the kind of experiment: Reaction Biology HotSpot kinase assay. It counts as biochemical. The note with it: 500 nM compound; for inhibition at 0.5 µM: read-out: Percentage kinase inhibition JAK2. The gist of the method: (§2)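 Compounds were screened at one concentration, 500 nM, in a radiometric kinase reaction. After a 20-minute preincubation with enzyme and substrate in pH 7.5 HEPES buffer (1% DMSO), the mixture received 100 μM ATP containing [γ-33P]ATP and was left 2 h at room temperature.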

The next assay concerns the target FER (Homo sapiens (Human), UniProt P16591). Nature of the assay: Reaction Biology HotSpot kinase assay. The note with it: 500 nM compound; for inhibition at 0.5 µM: read-out: Percentage kinase inhibition FER. In kind it is biochemical. The essentials: as §2
The next assay has as its target IR (Homo sapiens (Human), UniProt P06213). As to the kind of experiment: Reaction Biology HotSpot kinase assay. In kind it is biochemical. The note with it: 500 nM compound; for inhibition at 0.5 µM: read-out: Percentage kinase inhibition IR. The essentials: as §2
Another assay addresses FMS (Homo sapiens (Human), UniProt P07333). Nature of the assay: Reaction Biology HotSpot kinase assay. In kind it is biochemical. The note with it: 500 nM compound; for inhibition at 0.5 µM: read-out: Percentage kinase inhibition FMS. The gist of the method:
as §2

A further assay has as its target ERBB4/HER4 (Homo sapiens (Human), UniProt Q15303). As to the kind of experiment: Reaction Biology HotSpot kinase assay. It counts as biochemical. The note with it: 500 nM compound; for inhibition at 0.5 µM: read-out: Percentage kinase inhibition ERBB4/HER4. The essentials:
as §2

For another assay, the target named is PAK1 (Homo sapiens (Human), UniProt Q13153). As to the kind of experiment: Reaction Biology HotSpot kinase assay. In kind it is biochemical. The note with it: 500 nM compound; for inhibition at 0.5 µM: read-out: Percentage kinase inhibition PAK1. The essentials:
as §2

A further assay concerns the target AKT2 (Homo sapiens (Human), UniProt P31751). As to the kind of experiment: Reaction Biology HotSpot kinase assay. In kind it is biochemical. The note with it: 500 nM compound; for inhibition at 0.5 µM: read-out: Percentage kinase inhibition AKT2. The gist of the method:
as §2

Another assay concerns the target CDK2/cyclin A (Homo sapiens (Human), UniProt P24941). Nature of the assay: Reaction Biology HotSpot kinase assay. In kind it is biochemical. The note with it: 500 nM compound; for inhibition at 0.5 µM: read-out: Percentage kinase inhibition CDK2/cyclin A. The essentials:
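Each compound was tested at 500 nM, with 33P incorporation from ATP (100 μM final, including [γ-33P]ATP) measured by P81 paper capture after a 2 h room-temperature reaction.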

Another assay has as its target DDR2 (Homo sapiens (Human), UniProt Q16832). Nature of the assay: Reaction Biology HotSpot kinase assay. In kind it is biochemical. The note with it: 500 nM compound; for inhibition at 0.5 µM: read-out: Percentage kinase inhibition DDR2. The gist of the method: as §2
For a further assay, the target named is CDK9/cyclin T2 (Homo sapiens (Human), UniProt P50750). Nature of the assay: Reaction Biology HotSpot kinase assay. In kind it is biochemical. The note with it: 500 nM compound; for inhibition at 0.5 µM: read-out: Percentage kinase inhibition CDK9/cyclin T2. The gist of the method: as §2
Another assay has as its target CDK1/cyclin E (Homo sapiens (Human), UniProt P06493). As to the kind of experiment: Reaction Biology HotSpot kinase assay. It counts as biochemical. The note with it: 500 nM compound; for inhibition at 0.5 µM: read-out: Percentage kinase inhibition CDK1/cyclin E. The essentials: as §2
The next assay concerns the target MST4 (Homo sapiens (Human), UniProt Q9P289). As to the kind of experiment: Reaction Biology HotSpot kinase assay. It counts as biochemical. The note with it: 500 nM compound; for inhibition at 0.5 µM: read-out: Percentage kinase inhibition MST4. The essentials:
as §2

The next assay concerns HeLa. Nature of the assay: Proliferation inhibition at single concentration (CellTiter-Blue). The note with it: 1 μM compound. It counts as cell-based.
The test system of another assay is MCF-7. The assay is described as above. In kind it is cell-based. The note with it: 1 μM compound.

Chain of CDK1/cyclin E (P06493 whole entry): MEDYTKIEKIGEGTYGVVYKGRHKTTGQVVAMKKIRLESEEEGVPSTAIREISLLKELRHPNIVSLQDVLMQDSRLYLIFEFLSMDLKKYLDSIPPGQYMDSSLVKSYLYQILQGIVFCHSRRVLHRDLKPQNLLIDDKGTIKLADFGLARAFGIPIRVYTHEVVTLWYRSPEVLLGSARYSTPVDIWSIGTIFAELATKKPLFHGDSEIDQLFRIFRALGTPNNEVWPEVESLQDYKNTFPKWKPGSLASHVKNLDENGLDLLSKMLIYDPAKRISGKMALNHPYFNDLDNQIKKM
Chain of CDK1/cyclin E (P24864 whole entry partner): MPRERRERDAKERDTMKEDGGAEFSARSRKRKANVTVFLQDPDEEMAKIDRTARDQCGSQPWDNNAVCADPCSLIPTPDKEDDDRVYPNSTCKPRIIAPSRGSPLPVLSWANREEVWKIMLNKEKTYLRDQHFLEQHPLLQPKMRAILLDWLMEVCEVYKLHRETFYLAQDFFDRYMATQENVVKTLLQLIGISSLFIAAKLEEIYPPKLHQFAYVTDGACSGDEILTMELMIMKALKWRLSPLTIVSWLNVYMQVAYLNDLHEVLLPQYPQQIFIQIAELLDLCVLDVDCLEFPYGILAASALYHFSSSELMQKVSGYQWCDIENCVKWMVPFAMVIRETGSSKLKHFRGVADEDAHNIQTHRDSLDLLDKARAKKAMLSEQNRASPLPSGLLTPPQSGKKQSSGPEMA
Chain of CDK9/cyclin T2 (P50750 whole entry): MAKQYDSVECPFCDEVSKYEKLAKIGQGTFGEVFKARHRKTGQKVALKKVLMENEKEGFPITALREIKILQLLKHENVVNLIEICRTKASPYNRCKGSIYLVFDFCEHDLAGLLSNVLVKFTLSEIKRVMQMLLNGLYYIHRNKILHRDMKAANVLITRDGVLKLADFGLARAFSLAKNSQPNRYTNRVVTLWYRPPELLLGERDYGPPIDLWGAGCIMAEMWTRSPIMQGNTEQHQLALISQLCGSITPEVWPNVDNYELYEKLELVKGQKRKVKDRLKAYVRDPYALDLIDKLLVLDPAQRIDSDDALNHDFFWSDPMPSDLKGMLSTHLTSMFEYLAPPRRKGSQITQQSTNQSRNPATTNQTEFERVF
Chain of CDK9/cyclin T2 (O60583 whole entry partner): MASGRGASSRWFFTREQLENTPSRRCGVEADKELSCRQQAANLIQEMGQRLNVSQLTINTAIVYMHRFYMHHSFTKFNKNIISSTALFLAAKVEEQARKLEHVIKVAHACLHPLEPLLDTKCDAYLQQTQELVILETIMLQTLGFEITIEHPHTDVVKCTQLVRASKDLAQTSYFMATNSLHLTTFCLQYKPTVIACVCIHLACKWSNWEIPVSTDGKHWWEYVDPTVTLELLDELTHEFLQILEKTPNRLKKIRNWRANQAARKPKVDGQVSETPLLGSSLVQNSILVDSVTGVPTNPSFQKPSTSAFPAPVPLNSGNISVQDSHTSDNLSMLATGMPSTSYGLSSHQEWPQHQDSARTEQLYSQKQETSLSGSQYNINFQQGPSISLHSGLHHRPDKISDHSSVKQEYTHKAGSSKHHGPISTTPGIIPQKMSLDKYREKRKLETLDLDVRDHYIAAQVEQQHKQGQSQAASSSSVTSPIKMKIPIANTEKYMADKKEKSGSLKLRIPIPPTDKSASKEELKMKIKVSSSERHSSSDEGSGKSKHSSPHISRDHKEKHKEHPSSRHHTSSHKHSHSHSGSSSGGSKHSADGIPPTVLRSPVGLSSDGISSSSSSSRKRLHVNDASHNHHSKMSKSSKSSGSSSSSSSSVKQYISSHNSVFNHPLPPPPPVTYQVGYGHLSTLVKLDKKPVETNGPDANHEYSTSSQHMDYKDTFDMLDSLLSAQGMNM
Chain of PAK1 (Q13153 whole entry): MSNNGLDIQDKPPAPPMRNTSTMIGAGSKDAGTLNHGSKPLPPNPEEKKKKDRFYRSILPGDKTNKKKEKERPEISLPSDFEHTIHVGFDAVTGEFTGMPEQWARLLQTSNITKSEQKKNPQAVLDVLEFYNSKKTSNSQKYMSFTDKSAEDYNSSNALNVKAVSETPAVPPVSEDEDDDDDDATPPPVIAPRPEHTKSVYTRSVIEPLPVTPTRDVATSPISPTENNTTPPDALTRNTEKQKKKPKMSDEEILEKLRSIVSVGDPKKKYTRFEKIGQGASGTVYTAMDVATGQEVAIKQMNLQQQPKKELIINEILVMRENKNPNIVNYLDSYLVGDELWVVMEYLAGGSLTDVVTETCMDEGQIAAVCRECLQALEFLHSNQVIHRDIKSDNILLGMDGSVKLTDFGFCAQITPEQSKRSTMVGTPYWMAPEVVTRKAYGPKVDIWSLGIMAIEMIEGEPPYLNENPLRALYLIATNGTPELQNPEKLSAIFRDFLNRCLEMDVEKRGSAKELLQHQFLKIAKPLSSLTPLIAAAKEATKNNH
Chain of ERBB4/HER4 (Q15303 26-1308): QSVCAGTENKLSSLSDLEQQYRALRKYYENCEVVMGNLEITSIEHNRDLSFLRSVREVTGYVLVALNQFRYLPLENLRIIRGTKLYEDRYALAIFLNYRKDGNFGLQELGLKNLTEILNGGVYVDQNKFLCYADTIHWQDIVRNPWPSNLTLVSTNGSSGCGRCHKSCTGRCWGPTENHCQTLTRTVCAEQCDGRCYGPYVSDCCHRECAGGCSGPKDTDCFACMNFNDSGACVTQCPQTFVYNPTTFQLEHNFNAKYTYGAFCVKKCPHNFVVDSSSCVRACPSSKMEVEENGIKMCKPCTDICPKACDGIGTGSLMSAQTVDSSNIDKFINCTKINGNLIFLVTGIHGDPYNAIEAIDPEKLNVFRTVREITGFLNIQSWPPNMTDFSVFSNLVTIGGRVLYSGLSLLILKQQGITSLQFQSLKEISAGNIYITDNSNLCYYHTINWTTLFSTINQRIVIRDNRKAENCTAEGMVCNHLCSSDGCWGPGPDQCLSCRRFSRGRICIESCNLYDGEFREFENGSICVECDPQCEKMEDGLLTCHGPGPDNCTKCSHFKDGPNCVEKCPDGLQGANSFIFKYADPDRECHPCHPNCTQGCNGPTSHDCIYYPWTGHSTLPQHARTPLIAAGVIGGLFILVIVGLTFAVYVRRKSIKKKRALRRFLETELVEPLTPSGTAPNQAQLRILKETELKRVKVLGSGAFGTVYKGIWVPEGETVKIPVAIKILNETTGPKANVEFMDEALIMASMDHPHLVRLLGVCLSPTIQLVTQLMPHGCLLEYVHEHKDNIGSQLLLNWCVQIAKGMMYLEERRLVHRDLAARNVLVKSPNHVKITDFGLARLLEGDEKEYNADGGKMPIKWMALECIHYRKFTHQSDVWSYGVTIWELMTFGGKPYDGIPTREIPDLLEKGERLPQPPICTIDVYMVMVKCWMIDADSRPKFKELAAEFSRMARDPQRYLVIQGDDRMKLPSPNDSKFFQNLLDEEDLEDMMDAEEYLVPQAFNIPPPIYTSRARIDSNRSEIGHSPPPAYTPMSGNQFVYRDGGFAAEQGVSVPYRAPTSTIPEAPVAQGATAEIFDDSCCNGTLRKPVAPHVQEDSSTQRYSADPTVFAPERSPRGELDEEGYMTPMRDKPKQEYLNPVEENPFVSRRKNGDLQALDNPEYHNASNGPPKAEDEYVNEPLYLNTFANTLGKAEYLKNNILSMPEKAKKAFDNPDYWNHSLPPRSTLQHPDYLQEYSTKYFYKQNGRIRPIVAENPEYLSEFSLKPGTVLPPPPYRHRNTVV
Chain of TRKC (Q16288 32-839): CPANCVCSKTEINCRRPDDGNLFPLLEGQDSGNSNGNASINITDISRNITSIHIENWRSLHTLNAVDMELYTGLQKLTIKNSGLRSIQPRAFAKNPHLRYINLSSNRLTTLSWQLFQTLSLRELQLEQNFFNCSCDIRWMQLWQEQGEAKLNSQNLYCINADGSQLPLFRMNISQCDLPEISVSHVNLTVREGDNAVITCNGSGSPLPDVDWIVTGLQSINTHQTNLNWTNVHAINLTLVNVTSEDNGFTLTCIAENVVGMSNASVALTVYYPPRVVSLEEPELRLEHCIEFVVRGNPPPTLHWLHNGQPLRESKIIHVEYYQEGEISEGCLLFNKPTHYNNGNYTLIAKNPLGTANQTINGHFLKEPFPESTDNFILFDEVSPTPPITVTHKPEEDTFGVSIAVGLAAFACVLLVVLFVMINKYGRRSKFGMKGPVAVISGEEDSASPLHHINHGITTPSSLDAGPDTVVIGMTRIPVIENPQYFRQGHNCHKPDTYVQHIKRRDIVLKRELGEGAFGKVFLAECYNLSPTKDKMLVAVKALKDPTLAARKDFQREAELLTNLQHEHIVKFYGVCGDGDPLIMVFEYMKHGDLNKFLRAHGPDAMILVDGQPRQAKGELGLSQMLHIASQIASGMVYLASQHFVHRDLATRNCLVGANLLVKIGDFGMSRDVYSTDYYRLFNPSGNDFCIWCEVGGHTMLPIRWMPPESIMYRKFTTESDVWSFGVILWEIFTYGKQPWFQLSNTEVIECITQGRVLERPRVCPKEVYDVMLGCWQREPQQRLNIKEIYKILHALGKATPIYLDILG
Chain of MST4 (Q9P289 whole entry): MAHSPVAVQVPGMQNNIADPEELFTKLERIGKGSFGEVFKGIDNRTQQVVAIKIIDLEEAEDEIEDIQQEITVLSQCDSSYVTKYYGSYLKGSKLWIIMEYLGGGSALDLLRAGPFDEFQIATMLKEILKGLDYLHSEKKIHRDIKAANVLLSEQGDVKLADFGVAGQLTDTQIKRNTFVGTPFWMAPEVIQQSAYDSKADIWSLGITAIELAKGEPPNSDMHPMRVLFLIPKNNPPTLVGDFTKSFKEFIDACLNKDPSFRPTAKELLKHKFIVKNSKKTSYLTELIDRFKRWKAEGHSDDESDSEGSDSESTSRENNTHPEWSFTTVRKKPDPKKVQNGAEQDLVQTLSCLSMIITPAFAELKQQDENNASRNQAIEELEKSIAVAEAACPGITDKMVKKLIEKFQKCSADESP

Turning to `Cc1ccc(C(=O)Nc2ccc(CN3CCN(C)CC3)c(C(F)(F)F)c2)cc1C#Cc1cnc(N)c2ncccc12` [HSN356, 3-((8-amino-1,7-naphthyridin-5-yl)ethynyl)-4-methyl-N-(4-((4-methylpiperazin-1-yl)methyl)-3-(trifluoromethyl)phenyl)benzamide], the Kd (as a rule, the concentration at which binding is half-saturated) was 5100 nM at AURKA; 7.2 nM at KIT; 2.4 nM in assay [1]; 1.3 nM on FLT3; 2.5 nM on ABL1 non-phosphorylated. The compound further came in with an inhibition at 0.5 µM against TRKC of 59%.

On to `COc1cc2nc(N)nc(C#Cc3cc(C(=O)Nc4ccc(CN5CCN(C)CC5)c(C(F)(F)F)c4)ccc3C)c2cc1OC` [HSN325], for which the inhibition at 0.5 µM at JAK2 stood at 0%; on FER, 12%; on IR it was 9%; on FMS, 93%; on ERBB4/HER4, 7%; at PAK1, 0%. The inhibition at 0.5 µM at AKT2 was 0%; at TRKC, 4%; on CDK2/cyclin A, 0%; on DDR2, 81%; at CDK9/cyclin T2 it was 0%; on CDK1/cyclin E, 0%. Besides, at MST4, the inhibition at 0.5 µM stood at 0%.

As for `Cc1ccc(C(=O)Nc2ccc(CN3CCN(C)CC3)c(C(F)(F)F)c2)cc1C#Cc1cnc(N)c2ccccc12` [HSN334, 3-((1-aminoisoquinolin-4-yl)ethynyl)-4-methyl-N-(4-((4-methylpiperazin-1-yl)methyl)-3-(trifluoromethyl)phenyl)benzamide], the Kd at FLT3 was 5.1 nM; at ABL1 non-phosphorylated, 4.4 nM.

On TRKC, `Cc1ccc(C(=O)Nc2ccc(CN3CCN(C)CC3)c(C(F)(F)F)c2)cc1C#Cc1cc(N)nc2ccccc12` [HSN285] displayed an inhibition at 0.5 µM of 0%.

Regarding `CN(C)CC(O)CNC(=O)c1ccc(C#Cc2c(N)ncc3ccc(Cl)cc23)cc1` (stereo not drawn) [HSM1702], on JAK2, the “Percentage kinase inhibition JAK2” value was 0%. Further, on FER, the “Percentage kinase inhibition FER” value is 0%. Also, on IR, the “Percentage kinase inhibition IR” value was 9%. Besides, the “Percentage kinase inhibition FMS” value at FMS is 35%. Besides, at ERBB4/HER4, the “Percentage kinase inhibition ERBB4/HER4” value was 0%. The “Percentage kinase inhibition PAK1” value on PAK1 was 1%. For the same compound, on AKT2, the “Percentage kinase inhibition AKT2” value came out at 18%. The “% inhibition of TrkC” value at TRKC was 81%. Besides, the “Percentage kinase inhibition CDK2/cyclin A” value on CDK2/cyclin A worked out at 18%. For the same compound, the “Percentage kinase inhibition DDR2” value on DDR2 is recorded as 0%. Moreover, the “Percentage kinase inhibition CDK9/cyclin T2” value on CDK9/cyclin T2 is 65%. Moreover, the “Percentage kinase inhibition CDK1/cyclin E” value at CDK1/cyclin E is recorded as 13%. For the same compound, the “Percentage kinase inhibition MST4” value at MST4 amounted to 0%. Also, the “Percent inhibition of proliferation HeLa” value in the assay on HeLa is on record as 17%. For the same compound, the “Percent inhibition of proliferation MCF-7” value with MCF-7 worked out at 100%.

Consider `Cc1ccc(C(=O)Nc2ccc(CN3CCN(C)CC3)c(C(F)(F)F)c2)cc1C#Cc1c(N)ncc2ccc(Cl)cc12` [HSN286], for which the Kd at AURKA is greater than 30000 nM; at KIT it was 42 nM; in [1], 29 nM; on FLT3 it was 6.5 nM and 7.2 nM; on ABL1 non-phosphorylated, 7.2 nM. Further, the inhibition at 0.5 µM worked out at 67% at JAK2; 0% on FER; 16% on IR; 99% at FMS; 71% at ERBB4/HER4; 0% on PAK1. For the same compound, the inhibition at 0.5 µM at AKT2 is 3%; on TRKC, 91%; at CDK2/cyclin A, 0%; at DDR2, 77%; on CDK9/cyclin T2, 0%; on CDK1/cyclin E, 0%. For the same compound, the inhibition at 0.5 µM on MST4 worked out at 0%. Moreover, the inhibition at 1 µM in the assay with HeLa (Homo sapiens, HeLa, read-out: Percent inhibition of proliferation HeLa) is 100%; in the assay on MCF-7 (Homo sapiens, MCF7, read-out: Percent inhibition of proliferation MCF-7), 100%.
